# System: tyramine oxidase (microbial, copper amine oxidase)
# Experiment: Compound was evaluated for inhibition of Microbial tyramine oxidase; ni denotes no inhibition detected at millimolar concentrations; call rule not given here
row,Compound,IC50
1,Cl.NC1(c2ccccc2)CC1F (centres undefined),Not Active
2,Cl.NC[C@@H]1C[C@]1(F)c1ccccc1 (relative stereo),Not Active
3,Cl.NCC[C@@H]1C[C@]1(F)c1ccccc1 (relative stereo),Not Active
4,NC(=O)C1CC1(F)c1ccccc1 (trans isomer),Not Active
